Experimental data reported in patent US20240116985A1, “STAPLED PEPTIDES AND METHODS THEREOF” (priority 2020, published 2024).

The compounds below were run against T1, full-length beta-Catenin (Uniprot ID P35222) (Homo sapiens, UniProt P35222) (assay: Fluorescence polarization IC50 (beta-catenin / 5FAM-TCF4 10-53 competition)). Conditions: beta-Catenin FP IC50 (nM), fluorescence polarization.
T1 construct: 10 nM full-length beta-Catenin (Uniprot ID P35222)
T1 sequence (P35222 1-781): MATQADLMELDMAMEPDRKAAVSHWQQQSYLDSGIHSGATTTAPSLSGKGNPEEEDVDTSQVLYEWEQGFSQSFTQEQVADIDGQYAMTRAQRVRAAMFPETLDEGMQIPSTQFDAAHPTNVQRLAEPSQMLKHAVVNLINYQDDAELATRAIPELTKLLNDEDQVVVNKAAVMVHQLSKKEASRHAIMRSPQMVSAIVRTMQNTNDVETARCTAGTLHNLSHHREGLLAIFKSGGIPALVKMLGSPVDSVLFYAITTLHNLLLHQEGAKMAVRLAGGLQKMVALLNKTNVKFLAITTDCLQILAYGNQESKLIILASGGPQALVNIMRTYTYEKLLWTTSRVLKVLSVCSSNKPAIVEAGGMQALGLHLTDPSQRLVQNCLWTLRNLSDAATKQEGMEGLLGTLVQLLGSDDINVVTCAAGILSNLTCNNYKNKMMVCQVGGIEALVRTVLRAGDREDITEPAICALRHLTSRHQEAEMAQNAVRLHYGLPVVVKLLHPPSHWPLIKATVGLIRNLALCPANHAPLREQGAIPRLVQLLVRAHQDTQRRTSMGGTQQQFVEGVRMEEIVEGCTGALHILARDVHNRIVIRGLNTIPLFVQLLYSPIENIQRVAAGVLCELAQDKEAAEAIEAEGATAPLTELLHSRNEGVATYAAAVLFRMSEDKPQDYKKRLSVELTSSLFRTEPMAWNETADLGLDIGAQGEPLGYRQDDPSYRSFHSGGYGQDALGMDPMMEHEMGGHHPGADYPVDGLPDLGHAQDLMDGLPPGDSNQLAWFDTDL
Type: binding

Compound	IC50
CC(C)C[C@@H]1NC(=O)[C@H](Cc2ccccc2)NC(=O)[C@H](C)NC(=O)[C@H](C)NC(=O)[C@H](Cc2cccc(C(=O)O)c2)NC(=O)[C@H](CC(=O)O)NC(=O)C2(CCCC=CCCCOC(=O)N3CC[C@@](C(=O)N[C@@H](Cc4ccccc4Cl)C(=O)N[C@@H](Cc4csc5ccccc45)C(=O)N[C@@H](C)C(N)=O)(C3)NC1=O)CCCC=CC[C@]1(CCCN1C(=O)CBr)C(=O)N[C@@H](CC(=O)O)C(=O)N[C@@H](CC(C)(C)C)C(=O)N2 (stereo partly drawn) [I-2286, BrAc-PL3-Asp-Npg-B5-Asp-3COOHF-Ala-Ala-Phe-Leu-PyrS2-2C1F-BztA-Ala-NH2]	88 nM

Same assay, conditions: fluorescence polarization, beta-catenin; read-out: FP EC50

Compound	IC50
CC(=O)N1CCC[C@]12CC=CCCCC1(CCCC=CCCCOC(=O)N3CC[C@@](C(=O)N[C@@H](Cc4ccccc4Cl)C(=O)N[C@@H](Cc4csc5ccccc45)C(=O)N[C@@H](CN4CCOCC4)C(N)=O)(C3)NC(=O)[C@H](CC(N)=O)NC(=O)[C@H](Cc3ccccc3)NC(=O)[C@H](C)NC(=O)[C@H](C)NC(=O)[C@H](CC(=O)O)NC(=O)[C@H](CC(=O)O)NC1=O)NC(=O)[C@H](CC(C)(C)C)NC(=O)[C@H](CC(=O)O)NC2=O (stereo partly drawn) [I-1134, Ac-PL3-Asp-Npg-B5-Asp-Asp-Ala-Ala-Phe-Asn-PyrS2-2C1F-BztA-MorphAla-NH2]	6 nM

Same assay, conditions: fluorescence polarization; read-out: beta-Catenin FP IC50

Compound	IC50
CC(=O)N1CCC[C@]12CCCCCCC1(CCCCCCCCOC(=O)N3CC[C@@](C(=O)N[C@@H](Cc4ccsc4)C(=O)N[C@@H](Cc4csc5ccccc45)C(=O)N[C@@H](Cc4ccccc4)C(N)=O)(C3)NC(=O)[C@H](CC(C)C)NC(=O)[C@H](Cc3ccccc3)NC(=O)[C@H](C)NC(=O)[C@H](CCCCNC(C)C)NC(=O)[C@H](CN(CC(=O)O)CC(F)(F)F)NC(=O)[C@H](CC(=O)O)NC1=O)NC(=O)[C@H](CC(C)(C)C)NC(=O)[C@H](CC(=O)O)NC2=O (stereo partly drawn) [I-1767, Ac-PL3-Asp-Npg-B5-Asp-TfeGA-iPrLys-Ala-Phe-Leu-PyrS2-3Thi-BztA-Phe-NH2]	327 nM
C[C@@H]1NC(=O)[C@H](C)NC(=O)[C@H](CC(=O)O)NC(=O)[C@H](CC(=O)O)NC(=O)C2(CCCC=CCCCOC(=O)N3CC[C@@](C(=O)N[C@@H](Cc4ccsc4)C(=O)N[C@@H](Cc4csc5ccccc45)C(=O)N[C@@H](CCC(N)=O)C(N)=O)(C3)NC(=O)[C@H](CC(N)=O)NC(=O)[C@H](Cc3ccccc3)NC1=O)CCCC=CCS(=O)(=O)N1CCCC1C(=O)N[C@@H](CC(=O)O)C(=O)N[C@@H](CC(C)(C)C)C(=O)N2 (single isomer, unassigned) [I-1576, ProSAm3-Asp-Npg-B5-Asp-Asp-Ala-Ala-Phe-Asn-PyrS2-3Thi-BztA-Gln-NH2]	224 nM
CC(=O)N[C@]1(C)CCCCCCCCC2(CCCCCCCCOC(=O)N3CC[C@@](C(=O)N[C@@H](Cc4ccccc4C(F)(F)F)C(=O)N[C@@H](Cc4csc5ccccc45)C(=O)N[C@@H](CCC(N)=O)C(N)=O)(C3)NC(=O)[C@H](CC(C)C)NC(=O)[C@H](Cc3ccccc3)NC(=O)[C@H](C)NC(=O)[C@H](C)NC(=O)[C@H](Cc3cccc(C(=O)O)c3)NC(=O)[C@H](CC(=O)O)NC2=O)NC(=O)[C@H](CC(C)(C)C)NC(=O)[C@H](CC(=O)O)NC(=O)[C@H](C)NC1=O (stereo partly drawn) [I-2574, Ac-R5-Ala-Asp-Npg-B5-Asp-3COOHF-Ala-Ala-Phe-Leu-PyrS2-2F3MeF-BztA-Gln-NH2]	2960 nM
CC(=O)N1CCC[C@]12CC=CCCCC1(CCCC=CCCCOC(=O)N3CC(C(=O)N[C@@H](Cc4ccccc4C(F)(F)F)C(=O)N[C@@H](Cc4csc5ccccc45)C(=O)N[C@@H](CCC(N)=O)C(N)=O)(C3)NC(=O)[C@H](CC(C)C)NC(=O)[C@H](Cc3ccccc3)NC(=O)[C@H](C)NC(=O)C(C)(C)NC(=O)[C@H](Cc3cccc(C(=O)O)c3)NC(=O)[C@H](CC(=O)O)NC1=O)NC(=O)[C@H](CC(C)(C)C)NC(=O)[C@H](CC(=O)O)NC2=O (stereo partly drawn) [I-2614, Ac-PL3-Asp-Npg-B5-Asp-3COOHF-Aib-Ala-Phe-Leu-Az2-2F3MeF-BztA-Gln-NH2]	97 nM
CC(=O)N1CCC[C@]12CC=CCCCC1(CCCC=CCCCOC(=O)N3CC[C@@](C(=O)N[C@@H](Cc4ccsc4)C(=O)N[C@@H](Cc4csc5ccccc45)C(=O)N[C@@H](CCC(N)=O)C(N)=O)(C3)NC(=O)[C@H](CC(N)=O)NC(=O)[C@H](Cc3ccccc3)NC(=O)[C@H](C)NC(=O)[C@H](C)NC(=O)[C@H](CC(=O)O)NC(=O)[C@H](CC(=O)O)NC1=O)NC(=O)[C@H](CC(C)(C)C)NC(=O)[C@H](CCC(N)=O)NC2=O (stereo partly drawn) [I-1224, Ac-PL3-Gln-Npg-B5-Asp-Asp-Ala-Ala-Phe-Asn-PyrS2-3Thi-BztA-Gln-NH2]	389 nM
CC(=O)N1CCC[C@]12CC=CCCCC1(CCCC=CCCCOC(=O)N3CC[C@@](C(=O)N[C@@H](Cc4ccsc4)C(=O)N[C@@H](Cc4csc5ccccc45)C(=O)N[C@@H](C)C(N)=O)(C3)NC(=O)[C@H](C(C)C)NC(=O)[C@H](Cc3ccccc3)NC(=O)[C@H](C)NC(=O)[C@H](CCC(N)=O)NC(=O)[C@H](Cc3cccc(C(=O)O)c3)NC(=O)[C@H](CC(=O)O)NC1=O)NC(=O)[C@H](CC(C)(C)C)NC(=O)[C@H](CC(=O)O)NC2=O (stereo partly drawn) [I-2054, Ac-PL3-Asp-Npg-B5-Asp-3COOHF-Gln-Ala-Phe-Val-PyrS2-3Thi-BztA-Ala-NH2]	5 nM
CC(=O)N1CCC[C@]12CC=CCCCC1(CCCC=CCCCOC(=O)N3CC[C@@](C(=O)N[C@@H](Cc4ccsc4)C(=O)N[C@@H](Cc4csc5ccccc45)C(=O)N[C@@H](CCC(N)=O)C(N)=O)(C3)NC(=O)[C@H](CC(C)C)NC(=O)[C@H](Cc3ccccc3)NC(=O)[C@H](C)NC(=O)[C@H](C)NC(=O)[C@H](CNc3ccc([N+](=O)[O-])c(C(=O)O)c3)NC(=O)[C@H](CC(=O)O)NC1=O)NC(=O)[C@H](CC(C)(C)C)NC(=O)[C@H](CC(=O)O)NC2=O (stereo partly drawn) [I-1844, Ac-PL3-Asp-Npg-B5-Asp-[3COOH4NO2Ph]Dap-Ala-Ala-Phe-Leu-PyrS2-3Thi-BztA-Gln-NH2]	227 nM
CC(=O)N1CCC[C@H]1C(=O)N[C@]1(C)CCCCCCCCC2(CCCCCCCCOC(=O)N3CC[C@@](C(=O)N[C@@H](Cc4ccccc4C(F)(F)F)C(=O)N[C@@H](Cc4csc5ccccc45)C(=O)N[C@@H](CCC(N)=O)C(N)=O)(C3)NC(=O)[C@H](CC(C)C)NC(=O)[C@H](Cc3ccccc3)NC(=O)[C@H](C)NC(=O)[C@H](C)NC(=O)[C@H](Cc3cccc(C(=O)O)c3)NC(=O)[C@H](CC(=O)O)NC2=O)NC(=O)[C@H](CC(C)(C)C)NC(=O)[C@H](CC(=O)O)NC1=O (stereo partly drawn) [I-2573, Ac-Pro-R5-Asp-Npg-B5-Asp-3COOHF-Ala-Ala-Phe-Leu-PyrS2-2F3MeF-BztA-Gln-NH2]	234 nM
CC(=O)N1CCC[C@]12CC=CCCCC1(CCCC=CCCCOC(=O)N3CC[C@@](C(=O)N[C@@H](Cc4ccsc4)C(=O)N[C@@H](Cc4c[nH]c5ncccc45)C(=O)N[C@@H](CCC(N)=O)C(N)=O)(C3)NC(=O)[C@H](CC(N)=O)NC(=O)[C@H](Cc3ccccc3)NC(=O)[C@H](C)NC(=O)[C@H](C)NC(=O)[C@H](CC(=O)O)NC(=O)[C@H](CC(=O)O)NC1=O)NC(=O)[C@H](CC(C)(C)C)NC(=O)[C@H](CC(=O)O)NC2=O (stereo partly drawn) [I-2180, Ac-PL3-Asp-Npg-B5-Asp-Asp-Ala-Ala-Phe-Asn-PyrS2-3Thi-7AzaW-Gln-NH2]	2090 nM
COc1cccc(C[C@H](NC(=O)[C@]23CCN(C2)C(=O)OCCCC=CCCCC2(CCCC=CC[C@]4(CCCN4C(C)=O)C(=O)N[C@@H](CC(N)=O)C(=O)N[C@@H](CC4CCCCC4)C(=O)N2)C(=O)N[C@@H](CC(=O)O)C(=O)N[C@@H](CCC(N)=O)C(=O)N[C@@H](CCCCNC(C)C)C(=O)N[C@@H](C)C(=O)N[C@@H](Cc2ccccc2)C(=O)N[C@@H](CC(N)=O)C(=O)N3)C(=O)N[C@@H](Cc2csc3ccccc23)C(=O)N[C@@H](CCO)C(N)=O)c1 (stereo partly drawn) [I-1930, Ac-PL3-Asn-Cha-B5-Asp-Gln-iPrLys-Ala-Phe-Asn-PyrS2-3OMeF-BztA-Hse-NH2]	1560 nM
CC(=O)N1CCC[C@]12CC=CCCCC1(CCCC=CCCOC(=O)N3CCC(C(=O)N[C@@H](Cc4ccsc4)C(=O)N[C@@H](Cc4csc5ccccc45)C(=O)N[C@@H](C)C(N)=O)(CC3)NC(=O)[C@H](CC(C)C)NC(=O)[C@H](Cc3ccccc3)NC(=O)[C@H](C)NC(=O)[C@H](CCC(N)=O)NC(=O)[C@H](Cc3cccc(C(=O)O)c3)NC(=O)[C@H](CC(=O)O)NC1=O)NC(=O)[C@H](CC(C)(C)C)NC(=O)[C@H](CC(=O)O)NC2=O (stereo partly drawn) [I-2591, Ac-PL3-Asp-Npg-B5-Asp-3COOHF-Gln-Ala-Phe-Leu-SPip1-3Thi-BztA-Ala-NH2]	602 nM
CC(=O)N1CCC[C@]12CC=CCCCC1(CCCC=CCCCOC(=O)N3CC[C@@](C(=O)N[C@@H](Cc4ccccc4Cl)C(=O)N[C@@H](Cc4csc5ccccc45)C(=O)N[C@@H](CN4CCOCC4)C(N)=O)(C3)NC(=O)[C@H](CC(N)=O)NC(=O)[C@H](Cc3ccccc3)NC(=O)[C@H](C)NC(=O)[C@H](C)NC(=O)[C@H](CC(=O)O)NC(=O)[C@H](CC(=O)O)NC1=O)NC(=O)[C@H](CC(C)(C)C)NC(=O)[C@H](CC(=O)O)NC2=O (stereo partly drawn) [I-1134, Ac-PL3-Asp-Npg-B5-Asp-Asp-Ala-Ala-Phe-Asn-PyrS2-2C1F-BztA-MorphAla-NH2]	6 nM

Same assay, conditions: read-out: beta-Catenin FP IC50

Compound	IC50
CC(=O)N1CCC[C@]12CC=CCCCC1(CCCC=CCCCOC(=O)N3CC[C@@](C(=O)N[C@@H](Cc4ccsc4)C(=O)N[C@@H](Cc4csc5ccccc45)C(=O)NC(CCCCNC(=O)c4ccc5c(c4)B(O)OC5)C(N)=O)(C3)NC(=O)[C@H](CC(C)C)NC(=O)[C@H](Cc3ccccc3)NC(=O)[C@H](C)NC(=O)[C@H](C)NC(=O)[C@H](CN(CC(=O)O)CC(F)(F)F)NC(=O)[C@H](CC(=O)O)NC1=O)NC(=O)[C@H](CC(C)(C)C)NC(=O)[C@H](CC(=O)O)NC2=O (stereo partly drawn) [I-2186, Ac-PL3-Asp-Npg-B5-Asp-TfeGA-Ala-Ala-Phe-Leu-PyrS2-3Thi-BztA-BnBoroleK-NH2]	459 nM
